Legend:
[1] = system: Yeast cells (Saccharomyces cerevisiae); test: Staining of Yeast cells, light microscopy and SEM; format: cell-based
Protocol: The isolates of Saccharomyces sp. were cultured in GYE (glucose yeast extract agar) media, Bacillus sp. in Nutrient broth, and Pseudomonas sp. in King's B medium for 24 hour at 37° C. […] of this was taken and was allowed to incubate at 30 to 40° C. along with 100 μl of L.Zn (Scheme 1, Formula 1A) (1.16×10^−4 M) solution. The samples were fixed overnight at room temperature 25-30° C. with 2% (v/v) glutaraldehyde in 0.1 M phosphate buffer at pH 7.5. The samples were then washed with 0.1 M phosphate buffer (pH 7.5) at room temperature 25-30° C. for 1 hour. Post-fixation was carried out in 2% (w/v) osmium tetroxide (OsO4) in the same buffer and was washed once with 0.1 M phosphate buffer for 20 minutes. Then, the water was removed by a graded water-ethanol series; 25% ethanol for 15 min, 50% ethanol for 15 min, 75% ethanol for 30 min, 90% ethanol for 60 min, absolute alcohol for 30 min. The specimens were rinsed in buffer and coated with gold in a sputter coater (Polaron SC7620) prior to microscopy. The material was examined in a Scanning Electron Microscope (SEM) LEO 1430 VP at an accelerating Voltage of 15 kV.
The isolates of Saccharomyces sp. were cultured in GYE (glucose yeast extract agar) media, Bacillus sp. in Nutrient broth, and Pseudomonas sp. in King's B medium for 24 hour at 37° C. 1001 of this was taken and was allowed to incubate at room temperature along with 1001 of [L.Zn]=1.16×10^−4M solution (pH 7.2, 10 mM HEPES buffer solution). The samples were fixed overnight at 25 to 35° C. with 2% (v/v) glutaraldehyde in 0.1 M phosphate buffer at pH 7.5. The samples were then; washed with 0.1 M phosphate buffer (pH 7.5) at 25 to 35° C. for 1 hour. Post-fixation was carried out in 2% (w/v) osmium tetroxide (OsO4) in the same buffer and was washed once with 0.1 M phosphate buffer for 20 minutes. Then, the water was removed by a graded water-ethanol series; 25% ethanol for 15 min, 50% ethanol for 15 min, 75% ethanol for 30 min, 90% ethanol for 60 min, absolute alcohol for 30 min. The specimens were rinsed in buffer and coated with gold in a sputter coater (Polaron SC7620) prior to microscopy. The material was examined in a scanning electron microscope (SEM) LEO 1430 VP at an accelerating Voltage of 15 kV.
We have therefore, been able to use the receptor molecule, L.Zn (Scheme 1, Formula 1A) for staining Eukaryotic cells. Yeast cells were exposed to the receptor molecule L.Zn (Scheme 1, Formula 1A) (1.16×10^−4 M) for 20 min or L.Zn-CD (Scheme 2) (([L.Zn]=0.5×10^−3 M [α-CD]=2.92×10^−3 M) for 2 min followed by subsequent washing with water mixtures and then viewed under a light microscope (AXIO IMAGER-Carl Zeiss).
Ethanol is known to act as a dehydrator and a good fixative of biological samples. […] This confirms the binding of the ATP ions of the cell surface to L.Zn (Scheme 1, Formula 1A) as the plausible reason for the observed staining. […] This observation could be explained on the basis of the reversible binding of ATP, produced in situ in the Yeast cells.

[2] = system: eukaryotic and prokaryotic (Gram +ve/Gram −ve) cells; test: Staining of eukaryotic and prokaryotic cells, time needed and differentiation; format: cell-based
Protocol: Using the present Zn(II)-reagent (L.Zn) in presence of α-CD, eukaryotic and prokaryotic (Gram +ve/Gram −ve) cells could be stained with only 2 minutes incubation; while for the previous reagent (1.Zn) cells were needed to be incubated for 10 minutes for color development. Further, intensity of color of the stained cell (using present Zn(II)-complex was much more intense as compared to that reported earlier.
We also explored the possibility of using L.Zn/L.Zn.α-CD as the staining agent for prokaryotes (Gram +ve and Gram −ve bacterial cells). […] As expected stained cells for Gram +ve bacteria appeared longer as compared to those of the stained Gram −ve bacteria. The difference in the staining intensity for two different bacteria with the L.Zn.α-CD (Scheme 2) could be much better understood after going into the depth of cell biology of each bacterial cells and the detailed biochemistry involved while staining; besides, difference in cell structure and cell wall composition of the respective bacteria. […] Changes on the cell surfaces on binding of the dye, L.Zn (Scheme 1, Formula 1A) were also evident from the SEM images recorded for Gram −ve and Gram +ve bacteria, in absence and presence of staining agent (FIGS. 11C to 11F). […] The growth profile of Eukaryotic Yeast cells (Saccharomyces cerevisiae) and Prokaryotic bacterial cells ([…]) in an aqueous culture medium in absence and presence of L.Zn (Scheme 1, Formula 1A) are shown in FIG. 12. Change in absorbance (at λmax=600 nm) vs time (t) was plotted up to 30 h; as no appreciable change in growth was observed thereafter. […] FIGS. 12a, 12c and 12e show the actual growth curve of Saccharomyces cerevisiae, Pseudomonas fluorescence and Bacillus megaterium, respectively with time. While, FIGS. 12b, 12d and 12f show relative build up of ATP in cytoplasm with time for Saccharomyces cerevisiae, Pseudomonas fluorescence and Bacillus megaterium, respectively in presence of L.Zn (Scheme 1, Formula 1A) (D1) and L.Zn.α-CD (Scheme 2) (D2). […]

CN(C)c1ccc(N=Nc2ccc(S(=O)(=O)N3CCCNCCNCCCNCC3)cc2)cc1.O=[N+]([O-])[O-].O=[N+]([O-])[O-].[Zn+2] [L.Zn]
color of Yeast cells after treatment ([1]; L.Zn 0.116 mM, light microscopy): pink-violet
growth of colonies streaked on nutrient agar plates after incubation with sensor ([1]; Saccharamyces species in GYE media, sensor 1.0×10^−4 M, 25° C., 10 mins): colonies of the test microbes grew
control experiments: change in color of Yeast cells ([1]; control treatment of cells): no such change in color was observed
destaining of stained Yeast cells by citrate (reversible binding) ([1]; excess (50 mole equivalent) of citrate ion): became colorless
stability of staining after washing ([1]; washing with water/ethanol (70/30, v/v)): stable
incubation time needed for staining ([2]; in presence of α-CD): 2 min
distinguishing Gram +ve and Gram −ve bacteria ([2]; through different color intensities and shape of the stained cells): could also distinguish Gram +ve and Gram −ve bacteria
time in which staining takes place ([2]; without α-CD): 10 to 20 min

From patent US20130130306A1, “ZN (II) BASED COLORIMETRIC SENSOR AND PROCESS FOR THE PREPARATION THEREOF” (COUNCIL OF SCIENTIFIC & INDUSTRIAL RESEARCH, priority 2010, published 2013)
